Values of other authors, collected in article PMC12676331 (ACS Omega, 2025).

Legend:
G-protein = settings: in vitro and in vivo; ref number not given
P23H rod opsin = settings: ref number not given
rod opsin mutants = settings: in vitro; ref number not given
[1] = tested on: T17M Rho mouse model of RP; settings: ref number not given

Row | Compound | G-protein activation (G-protein) | maturation and membrane expression of P23H rod opsin (P23H rod opsin) | folding and membrane trafficking of rod opsin mutants (rod opsin mutants) | photoreceptor survival [1]
1 | 11-cis-6-membered-ring-retinal | can partially activate G-protein |  |  | 
2 | 11-cis-7-membered-ring-retinal | does not activate G-protein | improve the maturation and membrane expression of P23H rod opsin |  | 
3 | CC(=C/C(=O)O)/C=C/C=C(\C)C1C=C2C(C)(C)CCCC2(C)O1 (stereo not drawn) [13-cis-5,8-ERA, 8-epoxy-13-cis-retinoic acid] |  |  | promoted proper folding and membrane trafficking | 
4 | CC1=C(/C=C/C(=O)N2CCN(C(N)=O)CC2)C(C)(C)CCC1 [SRD005825] |  |  | promoted proper folding and membrane trafficking | improved photoreceptor survival
